According to patent US20250275537A1, “CARBOXAMIDE APYRASE INHIBITORS” (Texas Crop Science, Inc., priority 2024, published 2025):

tested on: apyrase; assay: Apyrase inhibition assay (Method 1); type: biochemical; settings: inhibitor conc at 1 mM stock, 10 μl per well; 1 hr room temperature; rounded average of at least two assay results
Protocol: Apyrase inhibitors useful as enhancers of pesticidal activity are assessed using an in vitro assay. The method of Windsor, Bio Techniques 33:1024-1030 (November 2002) was used as follows
96 well plates were used for the assay: (Greiner bio-one: REF-655901-96 well, PS, F-bottom, Clear, Non-binding)
• Reaction Buffer: 60 mM Hepes, 3 mM MgCl2, 3 mM CaCl2 and 3 mM ATP (pH 6.5) • Development Buffer A: 2% aqueous ammonium molybdate • Development Buffer B: 11% ascorbic acid in 37.5% TCA in water • Stop buffer C: 2% trisodium citrate in 2% acetic acid solution in water • Add 100 μl of reaction buffer to each well. • Add 10 μl of DMSO (control) or inhibitor/compound or compounds such as N1915 or orthovanadate to each well. (use inhibitor conc at 1 mM; orthovanadate at 2 mM and N1915 at 1 mM) • Add 10 μl of apyrase (concentration based on optimization —Dilute 1 U/μl enzyme to different concentrations such as 0.1U, 0.05U, 0.0025, 0.001U, 0.0005U—to find a good range) • Incubate plate at room temperature for 1 hr • Mix development buffer A and B in the ratio of 1:1.5 (just before use). • Add 50 ul of A:B mix in each well (incubate for 2 mins) • Add 50 ul of C in each well • Measure/Read Absorbance of plate @630 nm
Inhibitory data for the apyrase assay described above are provided for selected compounds in Table 3. In Table 3, D indicates inhibition of <10%.
With reference to Table 3, percent inhibition of apyrase is reported as the rounded average of at least two assay results.

Row | Compound | % Inhibition of Apyrase
1 | Cc1cc(C)c(NC(=O)c2ccc(C(=O)Nc3c(C)cc(C)cc3C)cc2)c(C)c1 [Compound I-51, N^1,N^4-dimesitylterephthalamide] | D (D indicates inhibition of <10%)
2 | CC1(C)NC(=O)N(c2cccc(NC(=O)c3cccc(C(=O)Nc4ccccc4)c3)c2)C1=O [Compound I-11, N^1-(3-(4,4-dimethyl-2,5-dioxoimidazolidin-1-yl)phenyl)-N^3-phenylisophthalamide] | B (B indicates inhibition of from 20% to 30%)
3 | N#Cc1cccc(NC(=O)c2ccc(C(=O)Nc3cccc(C#N)c3)cc2)c1 [Compound I-67, N^1,N^4-bis(3-cyanophenyl)terephthalamide] | A (A indicates inhibition above 30%)
4 | CCCNC(=O)c1cccc(C(=O)Nc2ccc3c[nH]nc3c2)c1 [Compound I-52, N^1-(2H-indazol-6-yl)-N^3-propylisophthalamide] | D (D indicates inhibition of <10%)
5 | Cc1n[nH]c2cc(NC(=O)c3cccc(C(=O)Nc4ccc5c(C)n[nH]c5c4)c3)ccc12 [Compound I-19, N^1,N^3-bis(3-methyl-1H-indazol-6-yl)isophthalamide] | B (B indicates inhibition of from 20% to 30%)
6 | CNC(=O)c1cccc(C(=O)Nc2ccc(NS(=O)(=O)C(F)(F)F)cc2)c1 [Compound I-56, N^1-methyl-N^3-(4-((trifluoromethyl)sulfonamido)phenyl)iso-phthalamide] | D (D indicates inhibition of <10%)
7 | CNC(=O)c1cccc(C(=O)Nc2ccc(C#N)c(C(F)(F)F)c2)c1 [Compound I-35, N^1-(4-cyano-3-(trifluoromethyl)phenyl)-N^3-methylisophthalamide] | C (C indicates inhibition of from 10% to 20%)
8 | COc1ccc(C)cc1NC(=O)c1ccccc1C(=O)N(C)C1CCCCC1 [Compound I-8, N^1-cyclohexyl-N^2-(2-methoxy-5-methylphenyl)-N^1-methylphthalamide] | A (A indicates inhibition above 30%)
9 | CNC(=O)c1cccc(C(=O)Nc2cccc(NC3CCCC3)c2)c1 [Compound I-44, N^1-(3-(cyclopentylamino)phenyl)-N^3-methylisophthalamide] | D (D indicates inhibition of <10%)
10 | CSc1cccc(NC(=O)c2ccc(C(=O)Nc3cccc(SC)c3)cc2)c1 [Compound I-2, N^1,N^4-bis(3-(methylthio)phenyl)terephthalamide] | A (A indicates inhibition above 30%)
11 | O=C(Nc1ccc2scnc2c1)c1ccc(C(=O)NC2CC2)cc1 [Compound I-41, N^1-(benzo[d]thiazol-5-yl)-N^4-cyclopropylterephthalamide] | D (D indicates inhibition of <10%)
12 | O=C(Nc1ccc2c(c1)OCCO2)c1ccc(C(=O)Nc2ccc3c(c2)OCCO3)cc1 [Compound I-6, N^1,N^4-bis(2,3-dihydrobenzo[b][1,4]dioxin-6-yl)terephthalamide] | A (A indicates inhibition above 30%)
13 | O=C(Nc1ccccc1)c1ccc(C(=O)Nc2cc3n(n2)CCC3)cc1 [Compound I-34, N^1-(5,6-dihydro-4H-pyrrolo[1,2-b]pyrazol-2-yl)-N^4-phenylterephthalamide] | C (C indicates inhibition of from 10% to 20%)
14 | COc1ccc(NC(=O)c2ccc(C(=O)Nc3ccc(OC)cc3OC)cc2)c(OC)c1 [Compound I-45, N^1,N^4-bis(2,4-dimethoxyphenyl)terephthalamide] | D (D indicates inhibition of <10%)
15 | CCCNC(=O)c1cccc(C(=O)Nc2cccc3cn[nH]c23)c1 [Compound I-57, N^1-(1H-indazol-7-yl)-N^3-propylisophthalamide] | D (D indicates inhibition of <10%)
16 | Cc1cccc(C)c1NC(=O)c1ccccc1C(=O)N(C)Cc1ccccc1 [Compound I-37, N^1-benzyl-N^2-(2,6-dimethylphenyl)-N1-methylphthalamide] | D (D indicates inhibition of <10%)
17 | CC(C)Cn1c(=O)c2ccccc2c(=O)n1C [Compound I-15, 2-isobutyl-3-methyl-2,3-dihydrophthalazine-1,4-dione] | B (B indicates inhibition of from 20% to 30%)
18 | O=C(Nc1ccc(-c2c[nH]cn2)cc1)c1cccc(C(=O)Nc2ccc(-c3c[nH]cn3)cc2)c1 [Compound I-17, N^1,N^3-bis(4-(1H-imidazol-4-yl)phenyl)isophthalamide] | B (B indicates inhibition of from 20% to 30%)

Row | Compound | % Inhibition of Apyrase
19 | O=C(Nc1ccc(OC(F)(F)C(F)F)cc1)c1cccc(C(=O)Nc2ccc(OC(F)(F)C(F)F)cc2)c1 [Compound I-62, N^1,N^3-bis(4-(1,1,2,2-tetrafluoroethoxy)phenyl)isophthalamide] | A (A indicates inhibition above 30%)
20 | O=C(NCC#Cc1ccccc1)c1ccc(C(=O)Nc2ccccc2)cc1 [Compound I-23, N1-phenyl-N4-(3-phenylprop-2-yn-1-yl)terephthalamide] | C (C indicates inhibition of from 10% to 20%)
21 | O=C(Nc1cccc2c1CNC2=O)c1cccc(C(=O)Nc2cccc3c2CNC3=O)c1 [Compound I-54, N^1,N^3-bis(1-oxoisoindolin-4-yl)isophthalamide] | D (D indicates inhibition of <10%)
22 | C#Cc1cccc(NC(=O)c2ccccc2C(=O)N2CCN(C)CC2)c1 [Compound I-58, N-(3-ethynylphenyl)-2-(4-methylpiperazine-1-carbonyl)benzamide] | D (D indicates inhibition of <10%)
23 | CN(C(=O)c1ccccc1C(=O)Nc1ccc2c(c1)OCO2)C1CCCCC1 [Compound I-18, N^1-(benzo[d][1,3]dioxol-5-yl)-N^2-cyclohexyl-N^2-methylphthalamide] | B (B indicates inhibition of from 20% to 30%)
24 | Cn1c(=O)c2ccccc2c(=O)n1Cc1nnc(C2CC2)o1 [Compound I-59, 2-((5-cyclopropyl-1,3,4-oxadiazol-2-yl)methyl)-3-methyl-2,3-dihydrophthalazine-1,4-dione] | D (D indicates inhibition of <10%)
25 | O=C(Nc1cccc([N+](=O)[O-])c1)c1ccccc1C(=O)N1CCCC1 [Compound I-33, N-(3-nitrophenyl)-2-(pyrrolidine-1-carbonyl)benzamide] | C (C indicates inhibition of from 10% to 20%)
26 | CCn1cc2ccc(NC(=O)c3cccc(C(=O)NC)c3)cc2n1 [Compound I-22, N^1-(2-ethy1-2H-indazol-6-yl)-N^3-methylisophthalamide] | C (C indicates inhibition of from 10% to 20%)
27 | CCc1noc(C)c1Cn1c(=O)c2ccccc2c(=O)n1C [Compound I-21, 2-((3-ethyl-5-methylisoxazol-4-yl)methyl)-3-methyl-2,3-dihydrophthalazine-1,4-dione] | C (C indicates inhibition of from 10% to 20%)
28 | CN(C(=O)c1ccccc1C(=O)Nc1cccc(C(F)(F)F)c1)C1CCCCC1 [Compound I-43, N^1-cyclohexyl-N^1-methyl-N^2-(3-(trifluoromethyl)phenyl)phthalamide] | D (D indicates inhibition of <10%)
29 | O=C(Nc1ccccc1)c1ccc(C(=O)N[C@@H]2C[C@H]2c2ccccc2)cc1 [Compound I-42, N^1-phenyl-N^4-((1R,2S)-2-phenylcyclopropyl)terephthalamide] | D (D indicates inhibition of <10%)
30 | CN1CCN(C(=O)c2ccccc2C(=O)Nc2ccc(F)cc2)CC1 [Compound I-53, N-(4-fluorophenyl)-2-(4-methylpiperazine-1-carbonyl)benzamide] | D (D indicates inhibition of <10%)
31 | O=C(Nc1ccccc1)c1cccc(C(=O)Nc2[nH]ncc2-c2ccc3c(c2)OCO3)c1 [Compound I-16, N1-(4-(benzo[d][1,3]dioxol-5-yl)-1H-pyrazol-5-yl)-N3-phenylisophthalamide] | B (B indicates inhibition of from 20% to 30%)
32 | O=C(Nc1ccc2c(c1)OCO2)c1ccc(C(=O)Nc2ccc3c(c2)OCO3)cc1 [Compound I-5, N^1,N^4-bis(benzo[d][1,3]dioxol-5-yl)terephthalamide] | A (A indicates inhibition above 30%)
33 | CCNC(=O)c1cc(NC(=O)c2ccc(C(=O)Nc3ccccc3)cc2)nc2ccccc12 [Compound I-13, N^1-(4-(ethylcarbamoyl)quinolin-2-yl)-N^4-phenylterephthalamide] | B (B indicates inhibition of from 20% to 30%)
34 | Cc1nc(NC(=O)c2ccc(C(=O)Nc3ccccc3)cc2)n[nH]1 [Compound I-39, N^1-(5-methyl-1H-1,2,4-triazol-3-yl)-N^4-phenylterephthalamide] | D (D indicates inhibition of <10%)
35 | CCOC(=O)c1ccc(NC(=O)c2cccc(C(=O)Nc3ccc(C(=O)OCC)cc3)c2)cc1 [Compound I-7, diethy 1 4,4′-(isophthaloylbis(azanediyl))dibenzoate] | A (A indicates inhibition above 30%)
36 | O=C(Nc1ccccc1-c1ncc[nH]1)c1ccc(C(=O)NC2CC2)cc1 [Compound I-47, N^1-(2-(1H-imidazol-2-yl)phenyl)-N^4-cyclopropylterephthalamide] | D (D indicates inhibition of <10%)
